{"source": "patent US20110130365A1", "about": "“Fluorinated Heteroaryls” (priority 2008, published 2011)", "target": "T1, Full-length glucokinase (beta cell isoform) (Homo sapiens, UniProt P35557)", "T1 construct": "Full-length glucokinase (beta cell isoform) was His-tagged at N-terminus; His tag (N); made in house", "T1 sequence (P35557 1-465)": "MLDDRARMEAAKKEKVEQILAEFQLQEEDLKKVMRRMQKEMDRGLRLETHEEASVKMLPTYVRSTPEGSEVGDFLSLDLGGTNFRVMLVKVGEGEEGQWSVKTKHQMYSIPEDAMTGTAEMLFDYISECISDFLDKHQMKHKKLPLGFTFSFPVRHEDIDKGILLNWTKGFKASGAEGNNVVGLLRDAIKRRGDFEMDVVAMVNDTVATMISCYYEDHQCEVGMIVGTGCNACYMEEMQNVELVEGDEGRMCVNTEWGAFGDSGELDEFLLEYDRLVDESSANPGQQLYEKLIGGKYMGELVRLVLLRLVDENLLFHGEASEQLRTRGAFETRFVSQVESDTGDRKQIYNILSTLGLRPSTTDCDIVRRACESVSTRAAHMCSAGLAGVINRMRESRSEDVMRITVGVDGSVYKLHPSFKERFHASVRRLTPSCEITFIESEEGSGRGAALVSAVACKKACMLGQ", "experiment": "Glucokinase activation assay (PK/LDH-coupled, NADH depletion at 340 nm)", "format": "biochemical", "conditions": "5 mM glucose, 2.5 mM ATP, pH 7.1, room temperature, values given as a range where N>1; for Emax: fitted % max activation, read-out: Maximum Activation", "description": "Full-length glucokinase (beta cell isoform) was His-tagged at N-terminus and purified by a Ni column followed by size exclusion chromatography. A 320 mL column was packed in house using Pharmacia Superdex75 preparation grade resin. Glucose was obtained from Calbiochem (San Diego, Calif.) and other reagents were purchased from Sigma (St. Louis, Mo.).\nAll assays were performed in a Corning 384-well plate using Spectramax PLUS spectrophotometer (Molecular Devices, Sunnyvale, Calif.) at room temperature. The final assay volume was 40 μL. The buffer conditions used in this assay were as follows: 50 mM HEPES, 5 mM glucose, 2.5 mM ATP, 3.5 mM MgCl2, 0.7 mM NADH, 2 mM dithiothreitol, 1 Unit/mL PK/LDH, 0.2 mM phosphoenolpyruvate, and 25 mM KCl. The buffer pH was 7.1. The test compound in DMSO solution was added to the buffer and mixed by a plate shaker for 7.5 minutes. The final concentration of DMSO introduced into the assay was 0.25%.\nGlucokinase was added to the buffer mixture to initiate the reaction in the presence and absence of compound. The reaction was monitored by absorbance at 340 nm due to the depletion of NADH. The initial reaction velocity was measured by the slope of a linear time course of 0-300 seconds. The percentage of activation was calculated by the following equation:\n% Activation=(Va/Vo−1)×100;\nwherein each of Va and Vo is defined as the initial reaction velocity in the presence and absence of the tested compound, respectively.\nTo determine the EC50 (half maximal effective concentration) and % maximum activation, compounds were serially diluted in DMSO by 3-fold. The GK activities were measured as a function of compound concentrations. The data were fitted to the equation below to obtain the EC50 and % max activation values:\nVa/Vo=1+(% max activation/100)/(1+EC50/compound concentration)", "note": "Structures can show the parent of a compound that is named as a salt."}
{"compound": "O=C(O)c1ccc(NC(=O)[C@H](CC2CCCC2)n2ccc(C(F)(F)F)cc2=O)nc1", "note": "[Example 34, (S)-6-(3-cyclopentyl-2-(2-oxo-4-(trifluoromethyl)pyridin-1(2H)-yl)propanamido)nicotinic acid]", "values": [{"measurement": "Emax", "value": "100 to 102", "unit": "%"}, {"measurement": "EC50", "value": "1.8 to 2.7", "unit": "µM"}]}
{"compound": "O=C(Nc1ncccn1)[C@H](CC1CCCC1)n1cc(C(F)(F)F)ccc1=O", "note": "[Example 12, (S)-3-cyclopentyl-2-(2-oxo-5-(trifluoromethyl)pyridin-1(2H)-yl)-N-(pyrimidin-2-yl)propanamide]", "values": [{"measurement": "Emax", "value": "109 to 110", "unit": "%"}, {"measurement": "EC50", "value": "13.6 to 20.8", "unit": "µM"}]}
{"compound": "Cc1ccc(NC(=O)[C@H](CC2CCOCC2)n2cc(C(F)(F)F)ccc2=O)nc1", "note": "[Example 38, (S)—N-(5-methylpyridin-2-yl)-2-(2-oxo-5-(trifluoromethyl)pyridin-1(2H)-yl)-3-(tetrahydro-2H-pyran-4-yl)propanamide]", "values": [{"measurement": "Emax", "value": "57 to 70", "unit": "%"}, {"measurement": "EC50", "value": "2.9 to 4.6", "unit": "µM"}]}
{"compound": "O=C(O)c1ccc(NC(=O)[C@H](CC2CCCCC2)n2ccc(C(F)(F)F)cc2=O)nc1", "note": "[Example 37, (S)-6-(3-cyclohexyl-2-(2-oxo-4-(trifluoromethyl)pyridin-1(2H)-yl)propanamido)nicotinic acid]", "values": [{"measurement": "Emax", "value": "92 to 101", "unit": "%"}, {"measurement": "EC50", "value": "1.5 to 3.5", "unit": "µM"}]}
{"compound": "Cc1ccc(NC(=O)[C@H](CC2CCOCC2)n2ccc(C(F)(F)F)cc2=O)nc1", "note": "[Example 41, (S)—N-(5-methylpyridin-2-yl)-2-(2-oxo-4-(trifluoromethyl)pyridin-1(2H)-yl)-3-(tetrahydro-2H-pyran-4-yl)propanamide]", "values": [{"measurement": "EC50", "value": "> 100", "unit": "µM"}]}
{"compound": "O=C(O)Cc1cnc(NC(=O)[C@H](CC2CCCC2)n2cc(C(F)(F)F)ccc2=O)s1", "note": "[Example 26, (S)-2-(2-(3-cyclopentyl-2-(2-oxo-5-(trifluoromethyl)pyridin-1(2H)-yl)propanamido)thiazol-5-yl)acetic acid mono acetic acid salt]", "values": [{"measurement": "Emax", "value": 116, "unit": "%"}, {"measurement": "EC50", "value": 11.1, "unit": "µM"}]}
{"compound": "Cn1ccc(NC(=O)[C@H](CC2CCCC2)n2cnc(C(F)(F)F)cc2=O)n1", "note": "[Example 24, (S)-3-cyclopentyl-N-(1-methyl-1H-pyrazol-3-yl)-2-(6-oxo-4-(trifluoromethyl)pyrimidin-1(6H)-yl)propanamide]", "values": [{"measurement": "Emax", "value": 106, "unit": "%"}, {"measurement": "EC50", "value": 27.1, "unit": "µM"}]}
{"compound": "CCn1ccc(NC(=O)[C@H](CC2CCCC2)n2cc(C(F)(F)F)ccc2=O)n1", "note": "[Example 10, (S)-3-cyclopentyl-N-(1-ethyl-1H-pyrazol-3-yl)-2-(2-oxo-5-(trifluoromethyl)pyridin-1(2H)-yl)propanamide]", "values": [{"measurement": "Emax", "value": "121 to 148", "unit": "%"}, {"measurement": "EC50", "value": "1.5 to 2.1", "unit": "µM"}]}
{"compound": "Cc1cnc(NC(=O)[C@H](CC2CCOCC2)n2ccc(C(F)(F)F)cc2=O)cn1", "note": "[Example 42, (S)—N-(5-methylpyrazin-2-yl)-2-(2-oxo-4-(trifluoromethyl)pyridin-1(2H)-yl)-3-(tetrahydro-2H-pyran-4-yl)propanamide]", "values": [{"measurement": "EC50", "value": "> 100", "unit": "µM"}]}
{"compound": "O=C(Nc1ccn(Cc2ccccc2)n1)[C@H](CC1CCCC1)n1ccc(C(F)(F)F)cc1=O", "note": "[Example 30, (S)—N-(1-benzyl-1H-pyrazol-3-yl)-3-cyclopentyl-2-(2-oxo-4-(trifluoromethyl)pyridin-1(2H)-yl)propanamide]", "values": [{"measurement": "Emax", "value": 58, "unit": "%"}, {"measurement": "EC50", "value": 4.2, "unit": "µM"}]}
{"compound": "O=C(Nc1cnccn1)[C@H](CC1CCCC1)n1ccc(C(F)(F)F)cc1=O", "note": "[Example 13, (S)-3-cyclopentyl-2-(2-oxo-4-(trifluoromethyl)pyridin-1(2H)-yl)-N-(pyrazin-2-yl)propanamide]", "values": [{"measurement": "Emax", "value": 106, "unit": "%"}, {"measurement": "EC50", "value": 14, "unit": "µM"}]}
{"compound": "Cc1ccc(NC(=O)[C@H](CC2CCCC2)n2cccc(C(F)(F)F)c2=O)nc1", "note": "[Example 2, (S)-3-cyclopentyl-N-(5-methylpyridin-2-yl)-2-(2-oxo-3-(trifluoromethyl)pyridin-1(2H)-yl)propanamide]", "values": [{"measurement": "Emax", "value": 0, "unit": "%"}, {"measurement": "EC50", "value": "> 100", "unit": "µM"}]}
{"compound": "O=C(Nc1ccc(CO)cn1)[C@H](CC1CCCC1)n1cc(C(F)(F)F)ccc1=O", "note": "[Example 33, (S)-3-cyclopentyl-N-(5-(hydroxymethyl)pyridin-2-yl)-2-(2-oxo-5-(trifluoromethyl)pyridin-1(2H)-yl)propanamide]", "values": [{"measurement": "Emax", "value": "85 to 159", "unit": "%"}, {"measurement": "EC50", "value": "0.3 to 0.5", "unit": "µM"}]}
{"compound": "Cc1cnc(NC(=O)[C@H](CC2CCOCC2)n2cc(C(F)(F)F)ccc2=O)cn1", "note": "[Example 39, (S)—N-(5-methylpyrazin-2-yl)-2-(2-oxo-5-(trifluoromethyl)pyridin-1(2H)-yl)-3-(tetrahydro-2H-pyran-4-yl)propanamide]", "values": [{"measurement": "EC50", "value": "> 100", "unit": "µM"}]}
{"compound": "Cn1ccc(NC(=O)[C@H](CC2CCCC2)n2ccc(C(F)(F)F)cc2=O)n1", "note": "[Example 4, (S)-3-cyclopentyl-N-(1-methyl-1H-pyrazol-3-yl)-2-(2-oxo-4-(trifluoromethyl)pyridin-1(2H)-yl)propanamide]", "values": [{"measurement": "Emax", "value": "72 to 106", "unit": "%"}, {"measurement": "EC50", "value": "4.6 to 22.4", "unit": "µM"}]}
{"compound": "CCn1ccc(NC(=O)[C@H](CC2CCCC2)n2ccc(C(F)(F)F)cc2=O)n1", "note": "[Example 15, (S)-3-cyclopentyl-N-(1-ethyl-1H-pyrazol-3-yl)-2-(2-oxo-4-(trifluoromethyl)pyridin-1(2H)-yl)propanamide]", "values": [{"measurement": "Emax", "value": 92, "unit": "%"}, {"measurement": "EC50", "value": 9.4, "unit": "µM"}]}
{"compound": "Cc1ccc(NC(=O)[C@H](CC2CCCC2)n2cnc(C(F)F)cc2=O)nc1", "note": "[Example 36, (S)-3-cyclopentyl-2-(4-(difluoromethyl)-6-oxopyrimidin-1(6H)-yl)-N-(5-methylpyridin-2-yl)propanamide]", "values": [{"measurement": "Emax", "value": 106, "unit": "%"}, {"measurement": "EC50", "value": 8.1, "unit": "µM"}]}
{"compound": "CCOP(=O)(Cc1cnc(NC(=O)[C@H](CC2CCCC2)n2cc(C(F)(F)F)ccc2=O)cn1)OCC", "note": "[Example 29, (S)-diethyl (5-(3-cyclopentyl-2-(2-oxo-5-(trifluoromethyl)pyridin-1(2H)-yl)propanamido)-pyrazin-2-yl)methylphosphonate]", "values": [{"measurement": "Emax", "value": 141, "unit": "%"}, {"measurement": "EC50", "value": 5.7, "unit": "µM"}]}
{"compound": "Cn1ccc(NC(=O)[C@H](CC2CCOCC2)n2ccc(C(F)(F)F)cc2=O)n1", "note": "[Example 43, (S)—N-(1-methyl-1H-pyrazol-3-yl)-2-(2-oxo-4-(trifluoromethyl)pyridin-1(2H)-yl)-3-(tetrahydro-2H-pyran-4-yl)propanamide]", "values": [{"measurement": "EC50", "value": "> 100", "unit": "µM"}]}
{"compound": "O=C(Nc1cnccn1)[C@H](CC1CCCC1)n1cc(C(F)(F)F)ccc1=O", "note": "[Example 8, (S)-3-cyclopentyl-2-(2-oxo-5-(trifluoromethyl)pyridin-1(2H)-yl)-N-(pyrazin-2-yl)propanamide]", "values": [{"measurement": "Emax", "value": "110 to 128", "unit": "%"}, {"measurement": "EC50", "value": "1.7 to 3.2", "unit": "µM"}]}
{"compound": "CCOC(=O)Cc1cnc(NC(=O)[C@H](CC2CCCC2)n2cc(C(F)(F)F)ccc2=O)s1", "note": "[Example 25, (S)-ethyl 2-(2-(3-cyclopentyl-2-(2-oxo-5-(trifluoromethyl)pyridin-1(2H)-yl)propanamido)thiazol-5-yl)acetate]", "values": [{"measurement": "Emax", "value": 84, "unit": "%"}, {"measurement": "EC50", "value": 2.9, "unit": "µM"}]}
{"compound": "Cc1ccc(NC(=O)[C@H](CC2CCCC2)n2ccc(C(F)(F)F)cc2=O)nc1", "note": "[Example 3, (S)-3-cyclopentyl-N-(5-methylpyridin-2-yl)-2-(2-oxo-4-(trifluoromethyl)pyridin-1(2H)-yl)propanamide]", "values": [{"measurement": "Emax", "value": "55 to 79", "unit": "%"}, {"measurement": "EC50", "value": "1 to 2.5", "unit": "µM"}]}
{"compound": "Cc1cnc(NC(=O)[C@H](CC2CCCC2)n2cnc(C(F)F)cc2=O)cn1", "note": "[Example 35, (S)-3-cyclopentyl-2-(4-(difluoromethyl)-6-oxopyrimidin-1(6H)-yl)-N-(5-methylpyrazin-2-yl)propanamide]", "values": [{"measurement": "Emax", "value": 144, "unit": "%"}, {"measurement": "EC50", "value": 45, "unit": "µM"}]}
{"compound": "Cn1ccc(NC(=O)[C@H](CC2CCCC2)n2cc(C(F)(F)F)ccc2=O)n1", "note": "[Example 16, (S)-3-cyclopentyl-N-(1-methyl-1H-pyrazol-3-yl)-2-(2-oxo-5-(trifluoromethyl)pyridin-1(2H)-yl)propanamide]", "values": [{"measurement": "Emax", "value": 125, "unit": "%"}, {"measurement": "EC50", "value": 2.5, "unit": "µM"}]}
{"compound": "Cc1ccc(NC(=O)[C@H](CC2CCCC2)n2cnc(C(F)(F)F)cc2=O)nc1", "note": "[Example 23, (S)-3-cyclopentyl-N-(5-methylpyridin-2-yl)-2-(6-oxo-4-(trifluoromethyl)pyrimidin-1(6H)-yl)propanamide]", "values": [{"measurement": "Emax", "value": 77, "unit": "%"}, {"measurement": "EC50", "value": 2.6, "unit": "µM"}]}
{"compound": "Cc1cnc(NC(=O)[C@H](CC2CCCC2)n2cccc(C(F)(F)F)c2=O)cn1", "note": "[Example 5, (S)-3-cyclopentyl-N-(5-methylpyrazin-2-yl)-2-(2-oxo-3-(trifluoromethyl)pyridin-1(2H)-yl)propanamide]", "values": [{"measurement": "Emax", "value": 0, "unit": "%"}, {"measurement": "EC50", "value": "> 100", "unit": "µM"}]}
